Laboratory results published in US10730889B2, “Amido spirocyclic amide and sulfonamide derivatives” (Forma TM, LLC, priority 2012, dated 2020).

Tested on: A2780 cells
Experiment: In-vitro cell proliferation assay (SRB, 72 hours)
Assay type: cell-based
Details: Homo sapiens, A2780, 72 h, A2780 cells, 72 hours, SRB; read-out: Cell Proliferation (IC50)

IC50	SMILES
2000 nM	O=C(NCC1CC12CCN(C(=O)c1c[nH]cn1)CC2)c1cc2ccncc2o1 (stereo not drawn) [Example 101, N-[[6-(1H-imidazole-4-carbonyl)-6-azaspiro[2.5]octan-2-yl]methyl]furo[2,3-c]pyridine-2-carboxamide]
2000 nM	O=C(NCC1CC12CCN(C(=O)c1ccncn1)CC2)c1cc2ccncc2o1 (stereo not drawn) [Example 102, N-[[6-(pyrimidine-4-carbonyl)-6-azaspiro[2.5]octan-2-yl]methyl]furo[2,3-c]pyridine-2-carboxamide]
2000 nM	O=C(NCC1CC12CCN(C(=O)c1cccnc1)CC2)c1cc2ccncc2o1 (stereo not drawn) [Example 103, N-[[6-(pyridine-3-carbonyl)-6-azaspiro[2.5]octan-2-yl]methyl]furo[2,3-c]pyridine-2-carboxamide]
2000 nM	O=C(NCC1CC12CCN(C(=O)c1cc[nH]n1)CC2)c1cc2ccncc2o1 (stereo not drawn) [Example 104, N-[[6-(1H-pyrazole-3-carbonyl)-6-azaspiro[2.5]octan-2-yl]methyl]furo[2,3-c]pyridine-2-carboxamide]
755 nM	Cn1cnc(C(=O)N2CCC3(CC2)CC3CNC(=O)c2cc3ccncc3o2)c1 (stereo not drawn) [Example 105, N-[[6-(1-methylimidazole-4-carbonyl)-6-azaspiro[2.5]octan-2-yl]methyl]furo[2,3-c]pyridine-2-carboxamide]
743 nM	Cc1n[nH]cc1C(=O)N1CCC2(CC1)CC2CNC(=O)c1cc2ccncc2o1 (stereo not drawn) [Example 106, N-[[6-(3-methyl-1H-pyrazole-4-carbonyl)-6-azaspiro[2.5]octan-2-yl]methyl]furo[2,3-c]pyridine-2-carboxamide]
2000 nM	Cn1nccc1C(=O)N1CCC2(CC1)CC2CNC(=O)c1cc2ccncc2o1 (stereo not drawn) [Example 107, N-[[6-(2-methylpyrazole-3-carbonyl)-6-azaspiro[2.5]octan-2-yl]methyl]furo[2,3-c]pyridine-2-carboxamide]
449 nM	Cc1cc(C(=O)N2CCC3(CC2)CC3CNC(=O)c2cc3ccncc3o2)n[nH]1 (stereo not drawn) [Example 108, N-[[6-(5-methyl-1H-pyrazole-3-carbonyl)-6-azaspiro[2.5]octan-2-yl]methyl]furo[2,3-c]pyridine-2-carboxamide]
299 nM	Cn1ccc(C(=O)N2CCC3(CC2)CC3CNC(=O)c2cc3ccncc3o2)n1 (stereo not drawn) [Example 109, N-[[6-(1-methylpyrazole-3-carbonyl)-6-azaspiro[2.5]octan-2-yl]methyl]furo[2,3-c]pyridine-2-carboxamide]
2000 nM	O=C(NCC1CC12CCN(C(=O)c1cccnn1)CC2)c1cc2ccncc2o1 (stereo not drawn) [Example 110, N-[[6-(pyridazine-3-carbonyl)-6-azaspiro[2.5]octan-2-yl]methyl]furo[2,3-c]pyridine-2-carboxamide]
2000 nM	O=C(NCC1CC12CCN(C(=O)c1cnccn1)CC2)c1cc2ccncc2o1 (stereo not drawn) [Example 112, N-[[6-(pyrazine-2-carbonyl)-6-azaspiro[2.5]octan-2-yl]methyl]furo[2,3-c]pyridine-2-carboxamide]
2000 nM	O=C(NCC1CC12CCN(C(=O)c1ccnnc1)CC2)c1cc2ccncc2o1 (stereo not drawn) [Example 113, N-[[6-(pyridazine-4-carbonyl)-6-azaspiro[2.5]octan-2-yl]methyl]furo[2,3-c]pyridine-2-carboxamide]
2000 nM	Cn1cc(C(=O)N2CCC3(CC2)CC3CNC(=O)c2cc3ccncc3o2)cn1 (stereo not drawn) [Example 114, N-[[6-(1-methylpyrazole-4-carbonyl)-6-azaspiro[2.5]octan-2-yl]methyl]furo[2,3-c]pyridine-2-carboxamide]
37.6 nM	Cc1cc(C(=O)N2CCC3(CC2)CC3CNC(=O)c2cc3ccncc3o2)nn1C (stereo not drawn) [Example 115, N-[[6-(1,5-dimethylpyrazole-3-carbonyl)-6-azaspiro[2.5]octan-2-yl]methyl]furo[2,3-c]pyridine-2-carboxamide]
752 nM	Cc1cc(C(=O)N2CCC3(CC2)CC3CNC(=O)c2cc3ccncc3o2)no1 (stereo not drawn) [Example 117, N-[[6-(5-methylisoxazole-3-carbonyl)-6-azaspiro[2.5]octan-2-yl]methyl]furo[2,3-c]pyridine-2-carboxamide]
1070 nM	Cc1nonc1C(=O)N1CCC2(CC1)CC2CNC(=O)c1cc2ccncc2o1 (stereo not drawn) [Example 118, N-[[6-(4-methyl-1,2,5-oxadiazole-3-carbonyl)-6-azaspiro[2.5]octan-2-yl]methyl]furo[2,3-c]pyridine-2-carboxamide]
446 nM	Cc1ncccc1C(=O)N1CCC2(CC1)CC2CNC(=O)c1cc2ccncc2o1 (stereo not drawn) [Example 119, N-[[6-(2-methylpyridine-3-carbonyl)-6-azaspiro[2.5]octan-2-yl]methyl]furo[2,3-c]pyridine-2-carboxamide]
92.8 nM	Cc1ccncc1C(=O)N1CCC2(CC1)CC2CNC(=O)c1cc2ccncc2o1 (stereo not drawn) [Example 120, N-[[6-(4-methylpyridine-3-carbonyl)-6-azaspiro[2.5]octan-2-yl]methyl]furo[2,3-c]pyridine-2-carboxamide]

IC50	SMILES
1090 nM	Cc1cc(C(=O)N2CCC3(CC2)CC3CNC(=O)c2cc3ccncc3o2)ccn1 (stereo not drawn) [Example 121, N-[[6-(2-methylpyridine-4-carbonyl)-6-azaspiro[2.5]octan-2-yl]methyl]furo[2,3-c]pyridine-2-carboxamide]
2000 nM	Cc1cnc(C(=O)N2CCC3(CC2)CC3CNC(=O)c2cc3ccncc3o2)cn1 (stereo not drawn) [Example 122, N-[[6-(5-methylpyrazine-2-carbonyl)-6-azaspiro[2.5]octan-2-yl]methyl]furo[2,3-c]pyridine-2-carboxamide]
83 nM	O=C(NCC1CC12CCN(C(=O)c1cc(C3CC3)n[nH]1)CC2)c1cc2ccncc2o1 (stereo not drawn) [Example 123, N-[[6-(3-cyclopropyl-1H-pyrazole-5-carbonyl)-6-azaspiro[2.5]octan-2-yl]methyl]furo[2,3-c]pyridine-2-carboxamide]
124 nM	CCn1ncc(C(=O)N2CCC3(CC2)CC3CNC(=O)c2cc3ccncc3o2)c1C (stereo not drawn) [Example 124, N-[[6-(1-ethyl-5-methyl-pyrazole-4-carbonyl)-6-azaspiro[2.5]octan-2-yl]methyl]furo[2,3-c]pyridine-2-carboxamide]
221 nM	Cc1noc(C)c1C(=O)N1CCC2(CC1)CC2CNC(=O)c1cc2ccncc2o1 (stereo not drawn) [Example 125, N-[[6-(3,5-dimethylisoxazole-4-carbonyl)-6-azaspiro[2.5]octan-2-yl]methyl]furo[2,3-c]pyridine-2-carboxamide]
833 nM	CCn1cc(C(=O)N2CCC3(CC2)CC3CNC(=O)c2cc3ccncc3o2)cn1 (stereo not drawn) [Example 126, N-[[6-(1-ethylpyrazole-4-carbonyl)-6-azaspiro[2.5]octan-2-yl]methyl]furo[2,3-c]pyridine-2-carboxamide]
2000 nM	N#Cc1ccc(C(=O)N2CCC3(CC2)CC3CNC(=O)c2cc3ccncc3o2)cn1 (stereo not drawn) [Example 127, N-[[6-(6-cyanopyridine-3-carbonyl)-6-azaspiro[2.5]octan-2-yl]methyl]furo[2,3-c]pyridine-2-carboxamide]
29.2 nM	Cc1nc(C)c(C(=O)N2CCC3(CC2)CC3CNC(=O)c2cc3ccncc3o2)o1 (stereo not drawn) [Example 128, N-[[6-(2,4-dimethyloxazole-5-carbonyl)-6-azaspiro[2.5]octan-2-yl]methyl]furo[2,3-c]pyridine-2-carboxamide]
37.3 nM	O=C(NCC1CC12CCN(C(=O)c1ccnc(N3CCOCC3)c1)CC2)c1cc2ccncc2o1 (stereo not drawn) [Example 129, N-[[6-(2-morpholinopyridine-4-carbonyl)-6-azaspiro[2.5]octan-2-yl]methyl]furo[2,3-c]pyridine-2-carboxamide]
7.2 nM	Cn1cc(-c2ccno2)c(C(=O)N2CCC3(CC2)CC3CNC(=O)c2cc3ccncc3o2)n1 (stereo not drawn) [Example 132, N-[[6-(4-isoxazol-5-yl-1-methyl-pyrazole-3-carbonyl)-6-azaspiro[2.5]octan-2-yl]methyl]furo[2,3-c]pyridine-2-carboxamide]
696 nM	CC(=O)Nc1cc(C(=O)N2CCC3(CC2)CC3CNC(=O)c2cc3ccncc3o2)ccn1 (stereo not drawn) [Example 133, N-[[6-(2-acetamidopyridine-4-carbonyl)-6-azaspiro[2.5]octan-2-yl]methyl]furo[2,3-c]pyridine-2-carboxamide]
514 nM	O=C(NCC1CC12CCN(C(=O)c1c[nH]nc1-n1cnnn1)CC2)c1cc2ccncc2o1 (stereo not drawn) [Example 134, N-[[6-[3-(tetrazol-1-yl)-1H-pyrazole-4-carbonyl]-6-azaspiro[2.5]octan-2-yl]methyl]furo[2,3-c]pyridine-2-carboxamide]
36.4 nM	CC(=O)Nc1cccc(C(=O)N2CCC3(CC2)CC3CNC(=O)c2cc3ccncc3o2)n1 (stereo not drawn) [Example 135, N-[[6-(6-acetamidopyridine-2-carbonyl)-6-azaspiro[2.5]octan-2-yl]methyl]furo[2,3-c]pyridine-2-carboxamide]
169 nM	CCc1noc(C)c1C(=O)N1CCC2(CC1)CC2CNC(=O)c1cc2ccncc2o1 (stereo not drawn) [Example 136, N-[[6-(3-ethyl-5-methyl-isoxazole-4-carbonyl)-6-azaspiro[2.5]octan-2-yl)methyl]furo[2,3-c]pyridine-2-carboxamide]
116 nM	CCn1nc(C)cc1C(=O)N1CCC2(CC1)CC2CNC(=O)c1cc2ccncc2o1 (stereo not drawn) [Example 137, N-[[6-(2-ethyl-5-methyl-pyrazole-3-carbonyl)-6-azaspiro[2.5]octan-2-yl]methyl]furo[2,3-c]pyridine-2-carboxamide]
2000 nM	CCn1cc(C(=O)N2CCC3(CC2)CC3CNC(=O)c2cc3ccncc3o2)c(C)n1 (stereo not drawn) [Example 138, N-[[6-(1-ethyl-3-methyl-pyrazole-4-carbonyl)-6-azaspiro[2.5]octan-2-yl)methyl]furo[2,3-c]pyridine-2-carboxamide]
2000 nM	Cc1nocc1C(=O)N1CCC2(CC1)CC2CNC(=O)c1cc2ccncc2o1 (stereo not drawn) [Example 139, N-[[6-(3-methylisoxazole-4-carbonyl)-6-azaspiro[2.5]octan-2-yl]methyl]furo[2,3-c]pyridine-2-carboxamide]
2000 nM	Cc1ccn(CC(C)C(=O)N2CCC3(CC2)CC3CNC(=O)c2cc3ccncc3o2)n1 (stereo not drawn) [Example 140, N-[[6-[2-methyl-3-(3-methylpyrazol-1-yl)propanoyl]-6-azaspiro[2.5]octan-2-yl]methyl]furo[2,3-c]pyridine-2-carboxamide]
